Source: US20110207742A1, “METHOD FOR REDUCTION, STABILIZATION AND PREVENTION OF RUPTURE OF LIPID RICH PLAQUE” (KOWA CO., LTD., priority 2004, published 2011)

Experiments:
Format in all cases: in vivo, rabbit
WHHL rabbits [1] = test: Total plasma cholesterol (TC) level in WHHL rabbits after 16 weeks of administration; details: Pitavastatin 0.5 mg/kg, compound 1 10 mg/kg; for Total plasma cholesterol (mg/dL) Mean ± S.E: male homozygous WHHL rabbits, via drinking water for 16 weeks, control 646.8 ± 27.1
Method: For the investigation of the effect of these drugs on total plasma cholesterol (TC), one or both of the compound 1 (10 mg/kg) and Pitavastatin (0.5 mg/kg) were administered to WHHL rabbits via drinking water for 16 weeks to measure the TC of each of the WHHL rabbits.
(§1) A WHHL rabbit was discovered by Dr. Yoshio Watanabe, a former medical professor at Kobe University in 1973, and was established as a strain. The WHHL rabbit is a model animal which naturally develops hypercholesterolemia and arteriosclerosis. Using such WHHL rabbits, the effect of the drugs on plaque stabilization was examined according to the following method.
(§2) Male homozygous WHHL rabbits (Kitayama Labes, Nagano) were purchased from Oriental Yeast (Tokyo), and WHHL rabbits aged about 4 months were used for experiment. For control, single administration of Pitavastatin, single administration of the compound 1, combined administration of Pitavastatin and the compound 1, 8 WHHL rabbits, 7 WHHL rabbits, 3 WHHL rabbits, and 4 WHHL rabbits were used, respectively.
(§3) Pitavastatin was synthesized by Nissan Chemical Industries, Ltd. (Tokyo) and was supplied therefrom. In the case of administration of Pitavastatin, 0.5 mg/kg of Pitavastatin dissolved in 400 mL (which is an average amount of drinking water per rabbit a day) of drinking water was administered to each rabbit. In the case of administration of the compound 1, 10 mg/kg (in terms of free base) of the compound 1 dissolved in 400 mL (which is an average amount of drinking water per rabbit a day) of ion-exchange water was administered to each rabbit. One or both of the drugs were administered for 16 weeks.
In the next morning after last administration, each of the rabbits was placed in a restraining box, and the ear of the rabbit was sterilized with an alcohol. Then, about 1 mL of blood was collected from an ear vein with a syringe containing EDTA (final concentration, 0.1%). The collected blood was centrifuged at 4,200×g for 5 minutes to fractionate plasma. TC was measured using cholesterol E-test Wako (by a cholesterol oxidaseΩDAOS method).
(§4) The results of TC and the ratio of aortic plaque area were expressed as average±standard error. Significance test between the control group and the drug administration groups were detected using Dunnett's test. Histopathological findings were evaluated in terms of the percentage of plaque area occupied by macrophages and the percentage of plaque area occupied by collagen.

WHHL rabbits [2] = test: Ratio of aortic plaque area in WHHL rabbits; details: Pitavastatin 0.5 mg/kg, compound 1 10 mg/kg; for Ratio of aortic plaque area (%) Mean ± S.E: plaque area/aortic intimal surface area×100, 16 weeks via drinking water, control 49.6 ± 5.0; for Inhibition ratio (%) of ratio of aortic plaque area: vs control group, 16 weeks via drinking water
From the text: as §1, §2, §3
The rabbit was perfused at a perfusion pressure of 120 mmH2O with physiological saline injected from a cardiac apex for about 5 minutes. Further, the rabbit was perfused with 4% paraformaldehyde in the same manner as described above to fix an aorta. The aorta was excised from the rabbit, and fat and connective tissue attached to the aorta were separated. An incision was made along the lesser curvature of the aorta, and then the greater curvature of the aorta was partially incised. The aorta was sandwiched between plastic films in such a manner that the intimal side of the aorta was observed, and a macro image was taken (CAMEDIA E-10, manufactured by Olympus Corporation). Based on the image, plaque area (that is, the area of lipid deposition) and aortic intimal surface area were analyzed by an image analyzer (Win Roof Ver. 5.0, manufactured by MITANI CORPORATION). The ratio of aortic plaque area of each of the rabbits was obtained using the formula:
plaque area/aortic intimal surface area×100
as §4

WHHL rabbits [3] = test: Histopathology of Azan-stained aortic arch, image analysis of plaque area occupied by macrophages and collagen; details: Azan stain, 16 weeks, Pitavastatin 0.5 mg/kg, compound 1 10 mg/kg; for percentage of plaque area occupied by collagen: control 26.5%; for percentage of plaque area occupied by macrophages: control 29.5%
From the text: In addition to the evaluation of TC, an aorta excised from each WHHL rabbit was histopathologically examined After the completion of measurement, an aortic arch of each WHHL rabbit was immersion-fixed with 4% paraformaldehyde overnight, and was then embedded in paraffin in the usual manner to prepare a paraffin section. The paraffin section was stained with Azan stain. […] FIGS. 1A to 1D are microscope photographs of Azan-stained aortic arches of the WHHL rabbits, and FIGS. 2A and 2B are graphs which show the analysis results of the images shown in FIGS. 1A to 1D. In this regard, it is to be noted that FIG. 1A is a microscope photograph of a control group to which no drug was administered, FIG. 1B is a microscope photograph of a group to which Pitavastatin was administered in single, FIG. 1C is a microscope photograph of a group to which the compound 1 was administered in single, and FIG. 1D is a microscope photograph of a group to which Pitavastatin and the compound 1 were administered in combination.
as §1, §2
as §3, with “weeks. […]” for “weeks.”
as §4

CSc1cc(C)nc(SC)c1NC(=O)CN1CCN(CCSc2nc3ccccc3[nH]2)CC1 [Compound 1, 2-[4-[2-(benzimidazole-2-ylthio)ethyl]piperazin-1-yl]-N-[2,4-bis(methylthio)-6-methyl-3-pyridyl]acetamide]
effect on TC (in words) (WHHL rabbits [1]; WHHL rabbits, 16 weeks via drinking water): no effect on TC | Total plasma cholesterol (mg/dL) Mean ± S.E (WHHL rabbits [1]): 648.3 ± 82.2 mg/dL | Ratio of aortic plaque area (%) Mean ± S.E (WHHL rabbits [2]): 43.7 ± 4.1% | Inhibition ratio (%) of ratio of aortic plaque area (WHHL rabbits [2]): 11.9% | percentage of plaque area occupied by collagen (WHHL rabbits [3]): 44.8% | percentage of plaque area occupied by macrophages (WHHL rabbits [3]): 14.9%

O=C(O)C[C@H](O)C[C@H](O)/C=C/c1c(C2CC2)nc2ccccc2c1-c1ccc(F)cc1 [Pitavastatin]
Total plasma cholesterol (mg/dL) Mean ± S.E (WHHL rabbits [1]): 524.2 ± 35.6 mg/dL | Inhibition ratio (%) of total plasma cholesterol (WHHL rabbits [1]; vs control group, WHHL rabbits, 16 weeks via drinking water): 19% | Ratio of aortic plaque area (%) Mean ± S.E (WHHL rabbits [2]): 47.1 ± 6.6% | Inhibition ratio (%) of ratio of aortic plaque area (WHHL rabbits [2]): 5.0% | percentage of plaque area occupied by collagen (WHHL rabbits [3]): 34.7% | percentage of plaque area occupied by macrophages (WHHL rabbits [3]): 17.1%
